We go through 1 molecule from PMC11117691, “Flipping the GPCR Switch: Structure-Based Development of Selective Cannabinoid Receptor 2 Inverse Agonists” (ACS Central Science, 2024).

In assay [1] the target is T1, hCB2R (Homo sapiens, UniProt P34972). Put plainly: Radioligand binding assay with [3H]-CP55,940. Set-up: expressed in transfected cells. To be noted: [3H]-CP55,940 competition, CHO-hCB2R membranes, 2 h at 30 °C. The procedure: For bindings experiments CHO cells stably expressing the human CB2R were used.14 […]
Radioligand binding assays were performed with [3H]-CP55,940 (Perkin Elmer, Austria) .
Membrane preparation was carried out according to previously published protocols.15 Briefly, competition binding experiments were carried out in duplicates at a final volume of 300 µL containing binding buffer (50 mM Tris-HCl, 2.5mM EDTA, 5 mM MgCl2, 0.5 mg/mL fatty acid-free BSA; pH 7.4), [3H]-CP55,940 (0.3 nM final concentration), compounds (semi logarithmically -spaced concentrations ranging from 0.1 nM to 10 µM) and membranes (2 µg/assay) in silanized glass vials. The reaction mixture was incubated for 2 h at 30 °C. Nonspecific binding was determined in the presence of AM630 (10 µM). Bound radioligand was separated from free radioligand by rapid filtration using 0.1% polyethlyenimine -presoaked GF/C glass fiber filter and a Skatron cell harvester. The radioactivity retained on the filters was measured by liquid scintillation. IC 50 and Ki values obtained from radioligand competition binding assays were determined by fitting the data to a three-parameter logistic Hill equation and applying the Cheng and Prusoff approximation. Data were normalized to specific binding of [3H]-CP55,940 in absence of compounds as maximum percentage (100%), which refers to an average of 4500 -5000 fmoles/mg protein for CB2R. […]

The target of assay [2] is T1, hCB2R. Description: cAMP HTRF assay in hCB2R-CHO cells. Further details: expressed in transfected cells. The format is cell-based. An excerpt:
One of the canonical signaling pathways of CB2R involves association with Gαi/o proteins, which elicit reversible inhibition of adenylyl cyclase resulting in a decrease of cellular cAMP levels and suppression of protein kinase A activity.[67] Consequently, we have investigated the change in cAMP levels upon probe addition using homogeneous time-resolved fluorescence (HTRF) cAMP assay (Table 3).
Homogeneous Time-Resolved Fluorescence (HTRF) cAMP assay
The homogeneous time-resolved fluorescence (HTRF) cAMP assay was conducted according to the manufacturer’s protocol for the cAMP-Gs Dynamic kit (Cisbio). Briefly, the CHO cell line stably overexpressing CB2R was maintained in Ham’s F12 supplemented with 10% FBS, penicillin (100 U/mL, Gibco-ThermoFisher), streptomycin (100 μg/mL, Gibco-ThermoFisher) and G418 (400 μg/mL, ThermoFisher). For CB2R compounds test, the cells were harvested with Cell Dissociation Buffer, resuspended in F-12 K at 0.4×10^6 cells/mL, and dispensed into 384-well low volume plates at 2000 cells/5 μL per well. The cells were stimulated with compounds diluted in Stimulation Buffer (2.5 μL/well) for 15 min at room temperature, followed by the addition of forsklin (2.5 μL 25 μM). After 15 mins incubation, reactions were stopped by 5 μL/well cAMP-d2 conjugate working solution followed by 5 μL/well of anti-cAMP cryptate working solution. After incubation for 1 h at room temperature, the plates were read in a PerkinElmer Envision reader for Time-Resolved Förster Resonance Energy Transfer (TR-FRET) at 620 nm and 665 nm.
β–arrestin recruitment assay
SNAP-tagged human CB2R HEK293-TR cells were maintained in a humidified environment at 37 °C and 5% CO2 in Dulbecco’s modified Eagle’s medium (DMEM) with 10% fetal bovine serum (FBS) containing blasticidin (5 µg/mL; Invitrogen) and (Zeocin; 20 µg/mL; Invitrogen). For receptor-inducible expression, cells were seeded into t175 cm2 flasks, grown to 70% confluence and DMEM containing 1 µg/ml tetracycline added.
HEK293TR-CB2R-nLuc cells expressing a fluorescently labelled β-arrestin protein were maintained in a humidified environment at 37 °C and 5% CO2 in Dulbecco’s modified Eagle’s medium (DMEM) with 10% fetal bovine serum (FBS) containing blasticidin (5 µg/mL; Invitrogen), Zeocin (20 µg/mL; Invitrogen) and G418 (0.2 mg/mL; Invitrogen) and used to assess compound stimulated β-arrestin recruitment to the human CB2R. Cultured cells were harvested upon reaching 70% confluency and plated at a seeding density of 50,000 cells per well. The cells were grown for 48 h until they reached confluency and then stimulated with 1 μg/mL tetracycline for a further 48 h to induce CB2R expression. Cell culture media was then aspirated from the wells and the cells were washed with assay buffer, 100 μL/well HBSS containing 0.5% BSA and 5 mM

Assay [3] addresses T1, hCB2R. The format is cell-based. To be noted: HEK293TR-CB2R-nLuc cells, representative of N = 3. Set-up: expressed in transfected cells; host or cells: HEK293TR cells, tetracycline-induced, live cells.
Experimental: HEPES. Following the wash, assay buffer containing 10 μM furimazine, 90 μL/well was added
to the wells. The plate was then incubated at 37 °C for 15 minutes to allow the nanoLuc substrate
furimazine to enter the cells. Three BRET cycles of 1-minute intervals were performed to assess
basal BRET levels, following which 10 μL of each compound, diluted in assay buffer was added
to the assay plate, which was read at 1-minute intervals for 30 minutes.
Buffer containing 10% DMSO (1% final) served as the vehicle control and
The assay buffer used to profile compounds in the CB 2R Gi-CASE system consisted of HBSS
containing 0.02% pluronic F127, 0.5% BSA and 5 mM HEPES. The reference compounds HU -
polypropylene plate. 0.5 µL of the reference and test compound serial dilutions was then added to
a white 384 well OptiplateTM (PerkinElmer) containing 39.5 μL of assay buff er. Finally, the CB 2R
membranes containing the G i-CASE biosensor were thawed and added into assay buffer containing
50 µM furimazine. Membranes (10 μL) were added to the assay plate at a final concentration of 5
µg/well. The total assay volume was 50 µL.
For assay [4], the target named is T1, hCB2R. Put plainly: TR-FRET saturation binding assay at CB2R. Further details: expressed in transfected cells; host or cells: HEK293-TR cells, tetracycline-induced; membrane preparations. Particulars: TR-FRET, room temperature, HEK293 membranes of SNAP-Lumi4-Tb labeled hCB2R. For orientation: TR-FRET usually uses a lanthanide donor and a delayed reading to cut background.

Assay [5] concerns the target T1, hCB2R. Put plainly: TR-FRET kinetic binding assay at CB2R. Set-up: expressed in transfected cells; host or cells: HEK293-TR cells, tetracycline-induced; membrane preparations. To be noted: for ΔΔG (Experimental): (R)-3 in comparison to (S)-3, from experimental Kd values.
Assay [6] deals with T1, hCB2R. Put plainly: BRET Gi-CASE G protein recruitment membrane assay. Format: biochemical. To be noted: hCB2R-HEK293 T-REx membranes, mean N = 3–4; read-out: pEC50 (Gi-CASE G protein recruitment) (converted). Further details: expressed in transfected cells; host or cells: HEK293-TR cells, tetracycline-induced; membrane preparations.
[7] abbreviates: 37 °C, hCB2R-HEK293 membranes, mean N = 3.

T1 sequence (P34972 whole entry): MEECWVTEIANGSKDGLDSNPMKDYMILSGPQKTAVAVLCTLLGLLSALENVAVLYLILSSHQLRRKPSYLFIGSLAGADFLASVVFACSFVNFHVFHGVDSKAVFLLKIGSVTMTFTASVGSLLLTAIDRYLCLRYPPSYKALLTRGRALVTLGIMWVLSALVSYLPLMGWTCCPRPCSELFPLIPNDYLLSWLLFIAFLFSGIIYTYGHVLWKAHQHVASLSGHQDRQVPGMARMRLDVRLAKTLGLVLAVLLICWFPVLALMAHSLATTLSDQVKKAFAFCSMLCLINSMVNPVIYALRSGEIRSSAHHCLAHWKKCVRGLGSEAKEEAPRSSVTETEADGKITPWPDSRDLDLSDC

Consider `C#CCCC(=O)NCC1=CC(c2c(OC)cc(C(C)(C)C(CCCCCN=[N+]=[N-])c3ccccc3)cc2OC)C2CC1C2(C)C` [(R)-3], for which the Ki on hCB2R [1] was found to be 660 pM. Besides, the EC50 on hCB2R [2] (hCB2R-CHO cells, forskolin stimulated, mean N = 3) is 33100 pM; on hCB2R [6], 60300 pM. Moreover, at hCB2R [2] (normalized to agonist CP-55,940 response (100%) and basal level (0%)), the “Emax (cAMP)” value is “–55%”. Further, the “β-arrestin recruitment (BRET signal)” value at hCB2R [3] is on record as “Baseline BRET signal was retained”. For the same molecule, the equilibrium dissociation constant (Kd) at hCB2R [4] came to 420 pM; on hCB2R [5] (kinetic Kd, 37 °C, hCB2R-HEK293 membranes, mean N = 3), 260 pM. Besides, the koff on hCB2R [5] (setting [7]) is recorded as 2.29 10^–2 min^–1. For the same molecule, on hCB2R [5] (setting [7]), the kon is 88.7 10^6 M^–1 min^–1. In addition, on hCB2R [5] (setting [7]), the “τ (receptor residence time)” value amounted to 43.7 min. The results for the “ΔΔG (Experimental)” value on hCB2R [5] and at hCB2R [5] (listed as (R)–3) were -0.9 kcal/mol and “–0.90 kcal mol-1”, respectively. Besides, the “ΔG (Experimental)” value on hCB2R [5] (ΔG exp = RT ln(Kd), T = 310 K, from experimental Kd values) is recorded as “–13.6 kcal mol-1”.

A word on the Ki: it is a dissociation constant, usually derived from enzyme kinetics or from competition with a known ligand. A high value points to a looser hold on the target. Broadly, the Kd is the constant that tells how readily two partners part at equilibrium. A low value points to tighter binding.
